What was measured:
[1] = tested on: E. coli sensitive strain JM109; assay: Drug susceptibility measurement with dissolved oxygen electrode, sensitive strain; assay type: cell-based
Source text: (§1) In step SP1, measurement of currents (output signals) is started by applying predetermined voltages to electrodes for measuring dissolved oxygen concentration. The electrodes are provided within a first compartment or well, second compartment or well, and third compartment or well, respectively. The first compartment or well is a compartment or well containing only physiological salt solution. The second compartment or well is a compartment or well containing physiological salt solution and drug solution of a first predetermined concentration. The third compartment or well is a compartment or well containing physiological salt solution and drug solution of a second predetermined concentration. […] In step SP4, current from each electrode for measuring dissolved oxygen concentration is measured at a second time interval for a third time period (for example, at every 1 second for 60 seconds). In step SP5, each time is obtained based upon each of the measured currents at which the maximum current is obtained. […] In step SP7, drug susceptibility is detected based upon the variation condition of each current value during the fourth time period. […]
(§2) Next, the electrode for measuring the dissolved oxygen concentration is mounted to each compartment or well. […] After the measurement time of 360 seconds has passed, the measured currents are stored and the measured currents are analyzed. […]

[2] = tested on: E. coli resistant strain 5W (ABPC plasmid introduction); assay: Drug susceptibility measurement with dissolved oxygen electrode, resistant strain; assay type: cell-based
Source text: as §1, §2

SMILES: CC1(C)S[C@@H]2[C@H](NC(=O)[C@H](N)c3ccccc3)C(=O)N2[C@H]1C(=O)O [ABPC, Ampicillin]
- variation characteristic of measured current (dissolved oxygen) following passage in time, curve versus control ([1]; JM109+ABPC, control JM109 as reference, FIGS. 2 and 3): more gentle than curves each corresponding to the control and the resistant strain
- inclination of measured current for 10 seconds from the peak timing, supposing the inclination corresponding to the control to be 100% ([1]; sensitive strain JM109 + ABPC solution 5.3 μg/ml, entire amount 0.25 ml and 0.5 ml, control JM109 without drug = 100%): 79.0–85.4%
- variation characteristic of measured current (dissolved oxygen) following passage in time, curve versus control ([2]; 5W+ABPC, control JM109 as reference, FIGS. 2 and 3): equal to or more steep than the curve corresponding to the control
- inclination of measured current for 10 seconds from the peak timing, supposing the inclination corresponding to the control to be 100% ([2]; resistant strain 5W + ABPC solution 5.3 μg/ml, entire amount 0.25 ml and 0.5 ml, control JM109 without drug = 100%): 96.1–122.9%
